Consider 15 compounds from patent US10874675B2, “Pteridine dione monocarboxylate transporter inhibitors” (The Scripps Research Institute, priority 2015, dated 2020).

The test system of this test is Raji (Burkitt's) lymphoma cells. Put plainly: MTT assay for 4-day viability of Raji (Burkitt's) lymphoma cells. The class given is cell-based. Particulars: Homo sapiens, 96 h, Raji cells (highly express MCT1), estimated values, read-out: approximate potency (EC50 nM). The text has this:
Specific Examples of compounds of the invention, with estimated EC50 values determined using an MTT assay for 4-day viability of Raji (Burkitt's) lymphoma cells, a cell line known to highly express MCT1 and to be sensitive to small molecule MCT inhibitors,^4 are shown in Table 3. Assay protocols follow those described in the literature.^4 Other assays that are not described here but that are standard in the field, such as an assay for competitive inhibition of transport of radiolabeled lactic acid, an MCT substrate, may also be useful in establishing mechanism of action of these compounds.
Turning to `CC(C)Cn1c(=O)n(C)c(=O)c2nc(CCCCCO)c(COc3cccc4ccccc34)nc21` [Example 2, 6-(5-hydroxypentyl)-1-isobutyl-3-methyl-7-((naphthalen-1-yloxy)methyl)pteridine-2,4(1H,3H)-dione], the EC50 was under 50 nM.

Regarding `CC(C)Cn1c(=O)n(C)c(=O)c2nc(CCCCCO)c(COc3cncc4ccccc34)nc21` [Example 5], the EC50 was under 50 nM.

As to `CC(C)Cn1c(=O)n(C)c(=O)c2nc(CCCCCO)c(COc3cccc4[nH]ccc34)nc21` [Example 6, 7-(((1H-indol-4-yl)oxy)methyl)-6-(5-hydroxypentyl)-1-isobutyl-3-methylpteridine-2,4(1H,3H)-dione], the EC50 is under 50 nM.

As for `CC(C)Cn1c(=O)n(C)c(=O)c2nc(CCCCCO)c(COc3ccccc3C(F)(F)F)nc21` [Example 7, 6-(5-hydroxypentyl)-1-isobutyl-3-methyl-7-((2-(trifluoromethyl)phenoxy)methyl)pteridine-2,4(1H,3H)-dione], the EC50 was under 50 nM.

As for `CC(C)Cn1c(=O)n(C)c(=O)c2nc(CCCCCO)c(COc3ccc([N+](=O)[O-])c4ccccc34)nc21` [Example 8, 6-(5-hydroxypentyl)-1-isobutyl-3-methyl-7-(((4-nitronaphthalen-1-yl)oxy)methyl)pteridine-2,4(1H,3H)-dione], the EC50 was 300 nM.

For `CC(C)Cn1c(=O)n(C)c(=O)c2nc(CCCCCO)c(COc3ccc(N)c4ccccc34)nc21` [Example 9, 7-(((4-aminonaphthalen-1-yl)oxy)methyl)-6-(5-hydroxypentyl)-1-isobutyl-3-methylpteridine-2,4(1H,3H)-dione], the EC50 was under 50 nM.

As to `CC(C)Cn1c(=O)n(C)c(=O)c2nc(CCCCCO)c(COc3ccc4ccccc4c3)nc21` [Example 10], the 50% effective concentration (EC50) was under 50 nM.

Regarding `CC(C)Cn1c(=O)n(C)c(=O)c2nc(CCCCCO)c(COc3ccccc3Br)nc21` [Example 11, 7-((2-bromophenoxy)methyl)-6-(5-hydroxypentyl)-1-isobutyl-3-methylpteridine-2,4(1H,3H)-dione], the EC50 was under 50 nM.

As for `CC(C)Cn1c(=O)n(C)c(=O)c2nc(CCCCCO)c(COc3ccnc4ccccc34)nc21` [Example 12, 6-(5-hydroxypentyl)-1-isobutyl-3-methyl-7-((quinolin-4-yloxy)methyl)pteridine-2,4(1H,3H)-dione], the EC50 is under 50 nM.

Turning to `CC(C)Cn1c(=O)n(C)c(=O)c2nc(CCCCCO)c(COc3ccccc3Cl)nc21` [Example 13, 7-((2-chlorophenoxy)methyl)-6-(5-hydroxypentyl)-1-isobutyl-3-methylpteridine-2,4(1H,3H)-dione], the EC50 was under 50 nM.

In the case of `CC(C)Cn1c(=O)n(C)c(=O)c2nc(CCCCCO)c(COc3ccc(-c4ccccc4)cc3)nc21` [Example 14, 7-(([1,1′-biphenyl]-4-yloxy)methyl)-6-(5-hydroxypentyl)-1-isobutyl-3-methylpteridine-2,4(1H,3H)-dione], the EC50 was at most 100 nM.

Consider `CC(C)Cn1c(=O)n(C)c(=O)c2nc(CCCCCO)c(COc3ccccc3)nc21` [Example 15, 6-(5-hydroxypentyl)-1-isobutyl-3-methyl-7-(phenoxymethyl)pteridine-2,4(1H,3H)-dione], for which the EC50 is at most 100 nM.

For `CC(C)Cn1c(=O)n(C)c(=O)c2nc(CCCCCO)c(COc3cccc(C(F)(F)F)c3)nc21` [Example 16, 6-(5-hydroxypentyl)-1-isobutyl-3-methyl-7-((3-(trifluoromethyl)phenoxy)methyl)pteridine-2,4(1H,3H)-dione], the EC50 is at most 100 nM.

Take `CC(C)Cn1c(=O)n(C)c(=O)c2nc(CCCCCO)c(COc3ccccc3F)nc21` [Example 17, 7-((2-fluorophenoxy)methyl)-6-(5-hydroxypentyl)-1-isobutyl-3-methylpteridine-2,4(1H,3H)-dione]: the EC50 was at most 100 nM.

In the case of `CC(C)Cn1c(=O)n(C)c(=O)c2nc(CCCCCO)c(COc3ccc4ncccc4c3)nc21` [Example 18, 6-(5-hydroxypentyl)-1-isobutyl-3-methyl-7-((quinolin-6-yloxy)methyl)pteridine-2,4(1H,3H)-dione], the EC50 was at most 100 nM.

The term EC50 denotes the concentration at which the effect is half-maximal.
